# Reference: patent publication US9512172B2, “Ethanol dependence of alpha1 antitrypsin C-terminal Lys truncation by basic carboxypeptidases” (Baxalta Incorporated, priority 2006, dated 2016)
# Experiments:
# [1] = target: T1, CPU (Homo sapiens, UniProt Q96IY4); conditions: cited from earlier work
# T1 sequence (Q96IY4 115-423): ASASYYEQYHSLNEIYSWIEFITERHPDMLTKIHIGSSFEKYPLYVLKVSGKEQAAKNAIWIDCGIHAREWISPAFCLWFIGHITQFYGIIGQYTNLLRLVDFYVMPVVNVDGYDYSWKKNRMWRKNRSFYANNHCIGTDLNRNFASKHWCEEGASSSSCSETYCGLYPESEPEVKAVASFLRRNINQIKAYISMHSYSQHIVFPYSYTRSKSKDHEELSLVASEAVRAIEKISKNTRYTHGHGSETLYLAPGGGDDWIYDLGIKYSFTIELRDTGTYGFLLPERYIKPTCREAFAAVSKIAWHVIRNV
# [2] = target: T2, CPN present in the paste (Homo sapiens, UniProt P15169); assay: Effect of CP inhibitors on C-terminal lysine truncation in dissolved, ethanol-treated IV-1 paste (IEF); type: biochemical
# T2 construct: Cohn IV-1 precipitate is usually derived after ethanol fractionation of plasma; from tissue; host or cells: Cohn IV-1 paste (ethanol precipitate of plasma)
# T2 sequence (P15169 21-458): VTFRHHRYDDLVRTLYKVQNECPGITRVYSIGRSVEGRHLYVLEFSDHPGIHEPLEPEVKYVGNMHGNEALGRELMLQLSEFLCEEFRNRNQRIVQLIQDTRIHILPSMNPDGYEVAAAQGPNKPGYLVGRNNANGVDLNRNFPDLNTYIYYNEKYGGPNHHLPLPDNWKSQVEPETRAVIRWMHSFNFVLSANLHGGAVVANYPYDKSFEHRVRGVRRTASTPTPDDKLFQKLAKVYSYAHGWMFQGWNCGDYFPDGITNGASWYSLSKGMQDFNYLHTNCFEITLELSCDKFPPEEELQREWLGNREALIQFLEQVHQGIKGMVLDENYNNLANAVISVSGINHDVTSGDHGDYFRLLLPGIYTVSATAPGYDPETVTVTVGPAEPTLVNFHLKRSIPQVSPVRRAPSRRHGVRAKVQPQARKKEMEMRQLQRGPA
# T2 sequence (P22792 22-545 partner): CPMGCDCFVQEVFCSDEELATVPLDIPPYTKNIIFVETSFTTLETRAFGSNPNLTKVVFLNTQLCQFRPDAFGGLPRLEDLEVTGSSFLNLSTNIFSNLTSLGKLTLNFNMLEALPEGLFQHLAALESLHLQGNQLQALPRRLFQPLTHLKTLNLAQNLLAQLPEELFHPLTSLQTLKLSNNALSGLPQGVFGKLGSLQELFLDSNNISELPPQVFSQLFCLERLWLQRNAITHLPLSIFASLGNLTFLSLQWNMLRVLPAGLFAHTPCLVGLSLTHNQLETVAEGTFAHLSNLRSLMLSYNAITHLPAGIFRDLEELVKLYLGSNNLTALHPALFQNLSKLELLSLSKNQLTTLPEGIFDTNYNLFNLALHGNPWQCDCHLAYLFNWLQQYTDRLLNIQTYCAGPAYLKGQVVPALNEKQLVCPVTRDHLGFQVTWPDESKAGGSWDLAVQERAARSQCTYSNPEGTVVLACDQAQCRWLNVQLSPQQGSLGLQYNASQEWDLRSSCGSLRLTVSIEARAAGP
# Procedure: Cohn IV-1 paste was dissolved in 2.6 volumes of 10 mM Tris-buffer at pH 8.8 and incubated for 30 min at 22° C. The suspension was made 40% in ethanol (by addition of 2.4 volumes of ethanol), stirred for a further 60 min, diluted with the same Tris-buffer to 10% ethanol and extracted for a further 6 h.
# The following inhibitors were added in parallel during extraction and dilution with Tris-buffer: 100 mM 6-aminocaproic acid, 10 μM or 1 nM 2-mercaptomethyl-3-guanidinoethylthiopropanoic acid (a more specific inhibitor of CPN). The samples were characterized by high resolution isoelectric focusing.
# For high resolution isoelectric focusing a new hybrid IEF method using IPG-Immobiline gels (GE Healthcare Bio-Sciences, pI 4.2-4.9, Uppsala, Sweden) was developed which is similar to that described by Weidinger^54. Samples were diluted with water to 0.5 mg A1PI/mL and 5 mM DTE was added. Samples (20 μl) were applied close to the cathode on the pre-focused gel and focused for 150 min (5000 Vh). For paste extracts focusing time was extended to 420 min. Gels were stained with Coomassie Brilliant Blue G-250 (BioRad, Hercules, USA) as described by Neuhoff^55. Blotting and immunostaining were done with a rabbit anti-A1PI antibody (Rabbit Anti-Human Alpha-1-Antitrypsin, #A0012, DakoCytomation, Glostrup, Denmark).
# [3] = target: T3, CPN (Homo sapiens, UniProt P15169); conditions: cited from earlier work
# T3 sequence (P15169 21-458): T2 sequence (P15169 21-458)
# T3 sequence (P22792 22-545 partner): T2 sequence (P22792 22-545 partner)
# [4] = target: T3, CPN; conditions: at 10% ethanol
# Procedure: The activity of the basic carboxypeptidases was measured with a HPLC-assisted assay as described^52. This assay is based on the cleavage of the synthetic substrate hippuryl-L-arginine. Released hippuric acid was determined with reverse phase high performance liquid chromatography (RP-HPLC). Briefly, to 10 μl of sample, 40 μl of 30 mM hippuryl-L-arginine (Bachem Feinchemikalien, Buchs, Switzerland) in 50 mM HEPES, pH 8.0, was added and incubated for 30 minutes at 37° C. in a water bath. Hippuryl-L-arginine cleavage was stopped by adding 50 μl of 1 M HCl. 10 μl of o-methyl hippuric acid (synthesized from methylbenzoyl chloride) serving as an internal standard was added afterwards. The hippuric acid (Bz-Gly, Fluka, Buchs, Switzerland) and o-methyl hippuric acid were extracted with ethyl acetate (300 μl). This layer was evaporated to dryness, redissolved in the mobile phase (10 mM KH2PO4, 10% acetonitrile, pH 3.5) and injected unto the column (C-18 Chromolith, performance 100-4.6 mm column (Merck, Darmstadt, Germany). The separation was done in isocratic mode and monitored at 228 nm. One unit of carboxypeptidase activity is defined as the amount of enzyme required to release 1 μmol of hippuric acid per min at 37° C. under the assay conditions described.
compound,measurement,setting,value
N=C(N)NCCSCC(CS)C(=O)O (racemic) [DL-2-mercaptomethyl-3-guanidinoethylthio-propanoic acid],Ki,[1],200 nM
same,Inhibition of Lys truncation induced by the procedure 40=>10% EtOH,"[2]; dissolved IV-1 paste, pH 8.8, 6 h",dose-dependently
same,Inhibition of lysine removal from A1PI,[2]; inhibitor at 10 μmol/l,completely inhibited
same,Ki,[3],8.7 nM
CCO [ethanol],Rate of substrate (Bz-Gly-Arg) cleavage by CPN,[4],almost doubled
